Results as given in PubChem BioAssay AID192 (DTP/NCI, 2004).
Inconclusive results and toxic doses are left out.

System: BDF1 mice, B16 melanoma ip, median survival T/C
Experiment: NCI In Vivo Anticancer Drug Screen. Data for tumor model B16 Melanoma (intraperitoneal) in B6D2F1 (BDF1) mice
Conditions: endpoint: median survival time, higher = longer survival
Outline: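 In this screen, activity was judged from survival or tumor size in treated versus vehicle-treated tumor-bearing mice, reported as T/C.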

[1] = dose: 100.0 mg/kg/injection, schedule: Q01DX009 (ip), vehicle: saline with Tween-80
[2] = dose: 25.0 mg/kg/injection, schedule: Q01DX009 (ip), vehicle: saline with Tween-80
[3] = dose: 50.0 mg/kg/injection, schedule: Q01DX009 (ip), vehicle: saline with Tween-80
[4] = dose: 12.5 mg/kg/injection, schedule: Q01DX009 (ip), vehicle: Klucel (hydroxypropylcellulose) (HPC)
[5] = dose: 1.56 mg/kg/injection, schedule: Q01DX009 (ip), vehicle: Klucel (hydroxypropylcellulose) (HPC)
[6] = dose: 6.25 mg/kg/injection, schedule: Q01DX009 (ip), vehicle: saline with Tween-80
[7] = dose: 50.0 mg/kg/injection, schedule: Q01DX009 (ip), vehicle: saline

With `Nc1ccc(S(=O)(=O)c2ccc(NCNc3ccc(S(=O)(=O)c4ccc(N)cc4)cc3)cc2)cc1` the T/C [1] was 88 % of control, the T/C (dose: 200.0 mg/kg/injection, schedule: Q01DX009 (ip), vehicle: saline with Tween-80) was 92 % of control and the T/C (dose: 400.0 mg/kg/injection, schedule: Q01DX009 (ip), vehicle: saline with Tween-80) was 90 % of control.

In the case of `COc1ccccc1N=Nc1c(O)ccc2ccccc12`, the T/C [2] is reported as 101 % of control, the T/C [3] is reported as 112 % of control and the T/C [1] is reported as 108 % of control.

For `O=C1CCCC(=O)C1C(C[N+](=O)[O-])c1ccccc1` (stereo unspecified), the T/C [4] was 86 % of control, the T/C (dose: 25.0 mg/kg/injection, schedule: Q01DX009 (ip), vehicle: Klucel (hydroxypropylcellulose) (HPC)) was 94 % of control and the T/C (dose: 50.0 mg/kg/injection, schedule: Q01DX009 (ip), vehicle: Klucel (hydroxypropylcellulose) (HPC)) was 107 % of control. The T/C (dose: 100.0 mg/kg/injection, schedule: Q01DX009 (ip), vehicle: Klucel (hydroxypropylcellulose) (HPC)) was 107 % of control.

In the case of `COc1cccc2c1CCC1=C2CC=C2CC3(CCC21C)OCCO3` (stereo unspecified), the T/C (dose: 100.0 mg/kg/injection, schedule: Q04DX003 (sc), vehicle: steriod suspending solution) is reported as 104 % of control, the T/C (dose: 200.0 mg/kg/injection, schedule: Q04DX003 (sc), vehicle: steriod suspending solution) is reported as 86 % of control and the T/C (dose: 400.0 mg/kg/injection, schedule: Q04DX003 (sc), vehicle: steriod suspending solution) is reported as 97 % of control.

In the case of `CC(Cc1ccccc1)NC(=O)CCNNC(=O)c1ccncc1` (stereo unspecified), the T/C (dose: 0.39 mg/kg/injection, schedule: Q01DX009 (ip), vehicle: Klucel (hydroxypropylcellulose) (HPC)) is reported as 95 % of control, the T/C (dose: 0.78 mg/kg/injection, schedule: Q01DX009 (ip), vehicle: Klucel (hydroxypropylcellulose) (HPC)) is reported as 87 % of control and the T/C [5] is reported as 90 % of control. For the same molecule, the T/C (dose: 3.12 mg/kg/injection, schedule: Q01DX009 (ip), vehicle: Klucel (hydroxypropylcellulose) (HPC)) was 95 % of control, the T/C (dose: 6.25 mg/kg/injection, schedule: Q01DX009 (ip), vehicle: Klucel (hydroxypropylcellulose) (HPC)) was 89 % of control and the T/C [4] was 91 % of control.

For `CC[CH2][Pb]([CH2]CC)([CH2]CC)[O]C(=O)c1ccccc1`, the T/C [5] was 103 % of control and the T/C (dose: 3.13 mg/kg/injection, schedule: Q01DX009 (ip), vehicle: Klucel (hydroxypropylcellulose) (HPC)) was 96 % of control.

For `Clc1ccc2c(c1)C(Nc1cc3c4ccccc4ccc3c3ccccc13)c1cc(Cl)cc(Cl)c1-2` (stereo unspecified), the T/C [6] was 86 % of control.

In the case of `NCCCNCCCCNC(=O)C(O)NC(=O)CCCCCCN=C(N)N` (stereo unspecified), the T/C (dose: 6.0 mg/kg/injection, schedule: Q01DX009 (ip), vehicle: saline) is reported as 96 % of control, the T/C (dose: 12.0 mg/kg/injection, schedule: Q01DX009 (ip), vehicle: saline) is reported as 96 % of control and the T/C (dose: 24.0 mg/kg/injection, schedule: Q01DX009 (ip), vehicle: saline) is reported as 93 % of control. The T/C (dose: 48.0 mg/kg/injection, schedule: Q01DX009 (ip), vehicle: saline) was 100 % of control.

`CCC(=O)c1ccc2c(c1)N(C(C)CN(C)C)c1ccccc1S2` (stereo unspecified) was tested, and the T/C (dose: 12.5 mg/kg/injection, schedule: Q01DX009 (ip), vehicle: saline) was 120 % of control, the T/C (dose: 25.0 mg/kg/injection, schedule: Q01DX009 (ip), vehicle: saline) was 110 % of control and the T/C [7] was 105 % of control.

With `CC(=O)Oc1c(C)c2c(O)c3c1C1=C(OCOC1=C(C)C3=O)C(C)=CC(C)(O)C(O)C(C)C(O)C1C(=O)OC(C(C)/C=C\C=C(C)C(=O)N2)C(C)C1O` (stereo unspecified) the T/C [7] was 97 % of control.

With `O=[N+]([O-])c1ccc(/C=N/c2ncc(Br)s2)o1` the T/C [6] was 95 % of control and the T/C (dose: 12.5 mg/kg/injection, schedule: Q01DX009 (ip), vehicle: saline with Tween-80) was 93 % of control.

For `O=C1C(=O)c2ccccc2C(O)=C1CCCc1ccc(C2CCCCCC2)cc1`, the T/C [2] was 123 % of control and the T/C [3] was 114 % of control.

For `S=c1nc[nH]c2nc[nH]c12`, the T/C (dose: 2.5 mg/kg/injection, schedule: Q01DX009 (ip), vehicle: other) was 120 % of control, the T/C (dose: 2.5 mg/kg/injection, schedule: Q01DX009 (ip), vehicle: saline) was 107 % of control and the T/C (dose: 5.0 mg/kg/injection, schedule: Q01DX009 (ip), vehicle: other) was 112 % of control. The T/C (dose: 5.0 mg/kg/injection, schedule: Q01DX009 (ip), vehicle: saline) was 110 % of control, the T/C (dose: 7.5 mg/kg/injection, schedule: Q01DX009 (ip), vehicle: Klucel (hydroxypropylcellulose) (HPC)) was 93 % of control and the T/C (dose: 9.38 mg/kg/injection, schedule: Q01DX009 (ip), vehicle: alkali diluted with water) was 94 % of control. For the same molecule, the T/C (dose: 10.0 mg/kg/injection, schedule: Q01DX009 (ip), vehicle: saline) was 110 % of control, the T/C (dose: 11.3 mg/kg/injection, schedule: Q01DX009 (ip), vehicle: other) was 90 % of control and the T/C [4] was 110 % of control. For the same molecule, the T/C (dose: 18.8 mg/kg/injection, schedule: Q01DX009 (ip), vehicle: alkali diluted with water) was 100 % of control, the T/C (dose: 20.0 mg/kg/injection, schedule: Q01DX009 (ip), vehicle: saline) was 160 % of control and the T/C (dose: 22.5 mg/kg/injection, schedule: Q01DX009 (ip), vehicle: other) was 95 % of control. The T/C (dose: 25.0 mg/kg/injection, schedule: Q01DX009 (ip), vehicle: acid diluted with saline) was 87 % of control, the T/C (dose: 30.0 mg/kg/injection, schedule: Q01DX009 (ip), vehicle: saline) was 105 % of control and the T/C (dose: 37.5 mg/kg/injection, schedule: Q01DX009 (ip), vehicle: alkali diluted with water) was 88 % of control. The T/C (dose: 40.0 mg/kg/injection, schedule: Q01DX009 (ip), vehicle: saline) was 110 % of control, the T/C (dose: 75.0 mg/kg/injection, schedule: Q01DX009 (ip), vehicle: alkali diluted with water) was 84 % of control and the T/C (dose: 78.0 mg/kg/injection, schedule: Q04DX003 (ip), vehicle: alkali diluted with water) was 96 % of control. The T/C (dose: 120.0 mg/kg/injection, schedule: Q04DX003 (ip), vehicle: alkali diluted with water) was 98 % of control, the T/C (dose: 150.0 mg/kg/injection, schedule: Q01DX009 (ip), vehicle: alkali diluted with water) was 46 % of control and the T/C (dose: 200.0 mg/kg/injection, schedule: Q04DX003 (ip), vehicle: alkali diluted with water) was 84 % of control. For the same molecule, the T/C (dose: 333.0 mg/kg/injection, schedule: Q04DX003 (ip), vehicle: alkali diluted with water) was 81 % of control.
